Marks after values point to notes of the source that are not given here.
Assays:
[1] = test system: Allium cepa root meristem cells; test: Chromosomal abnormality, MN and mitotic index test; format: in vivo; settings: 0.0714 mg/L, 72 h germination
[2] = test system: Allium cepa root meristem cells; test: Comet assay; format: in vivo; settings: 0.0714 mg/L, 72 h germination

**Q.** Which results are given for [N-]=[N+]=[N-].[Na+] [NaN3, sodium azide]?
**A.** Binuclear cell ([1]; 1.000 cells per group): 71.9 ± 3.95^a; Bridge ([1]; 1.000 cells per group): 48.3 ± 4.20^a; Disorientation ([1]; 1.000 cells per group): 56.4 ± 4.16^a; Fragment ([1]; 1.000 cells per group): 34.9 ± 3.59^a; Micronucleus ([1]; 1.000 cells per group): 75.7 ± 8.27^a; Nucleus bud ([1]; 1.000 cells per group): 41.0 ± 3.81^a; Sticky chromosome ([1]; 1.000 cells per group): 72.7 ± 4.74^a; Unequal distribution of chromatin ([1]; 1.000 cells per group): 51.5 ± 3.72^a; Vagrant chromosome ([1]; 1.000 cells per group): 67.7 ± 3.82^a; Micronucleus ([1]; 1.000 cells per group, listed as NaN₃): 75.7 ± 8.27; Mitotic index (%) ([1]; 10.000 cells per group): 6.75%; Mitotic index: number of dividing cells ([1]; 10.000 cells per group): 675 ± 11.2; Head DNA (%) [2]: 25.0 ± 1.35^e %; Head density [2]: 75.475; Head diameter (px) [2]: 8.000 px; Tail DNA (%) [2]: 75.0 ± 1.35^a %; Tail density [2]: 196.278; Tail length (px) [2]: 72.000 px; Tail moment [2]: 53.981; Tail DNA (%) ([2]; listed as NaN₃): 75.0 ± 1.35%

— article PMC12475174 (Scientific Reports, 2025)
